Measurements as given in article PMC6943441, “The Meta-Position of Phe^4 in Leu-Enkephalin Regulates Potency, Selectivity, Functional Activity, and Signaling Bias at the Delta and Mu Opioid Receptors” (Molecules, 2019).
Like-named read-outs stand apart in the source and are kept apart here.

Legend:
µOR [1] = target: T1, µOR (Homo sapiens, UniProt P35372); assay: Competition radioligand binding, [3H]DAMGO
Experimental: Next, 100 µL of membrane suspension containing 7 µg protein was added to the agonist wells and incubated for 90 min at room temperature. The reaction mixture was then filtered over a GF-B filter plate (Perkin Elmer) followed by four quick washes with ice-cold 50 mM Tris HCl. The plate was dried overnight, after which 50 µL scintillation fluid (Ultimagold uLLT) was added and radioactivity was counted on a Packard TopCount NXT scintillation counter. All working solutions were prepared in a radioligand assay buffer containing 50 mM Tris HCl, 10 mM MgCl2, and 1 mM ethylenediaminetetraacetic acid at pH 7.4.

FLAG-mouse δOR = target: T2, FLAG-mouse δOR (Mus musculus, UniProt P32300); assay: cAMP GloSensor inhibition assay in HEK 293 cells; type: cell-based; conditions: for IC50: HEK 293, forskolin 30 µM; for cAMP δOR Efficacy (%+SD): relative to Leu-enkephalin = 100; for LogR (δOR) cAMP: operational model Log R (τ/KA)
T2 construct: FLAG; expressed in transfected cells; host or cells: HEK 293
Experimental: (§1) In brief, for cAMP inhibition assays HEK 293 (Life Technologies, Grand Island, NY, USA) cells were transiently transfected in a 1:3 ratio with FLAG-mouse δOR, or HA-mouse µOR and pGloSensor22F-cAMP plasmids (Promega, Madison, WI, USA) using Xtremegene9 (Sigma). Two days post-transfection cells (20,000 cells/well, 7.5 µL) were seeded in low volume Greiner 384-well plates (#82051-458, VWR, Batavia, IL, USA) and were incubated with Glosensor reagent (Promega, 7.5 µL, 2% final concentration) for 90 min at room temperature. […] For β-arrestin recruitment assays, CHO-human µOR PathHunter β-arrestin 2 cells or CHO-human δOR PathHunter β-arrestin 2 cells (DiscoverX, Fremont, CA, USA) were plated (2,500 cells/well, 10 µL) one day prior to stimulation with 2.5 µL drug solution for 90 min at 37 °C/5% CO2, after which cells were incubated with 6 µL cell PathHunter assay buffer (DiscoverX) for 60 min at room temperature as per the manufacturer’s protocol. Luminescence for each of these assays was measured using a FlexStation3 plate reader (Molecular Devices, Sunnyvale, CA, USA).
(§2) All data are presented as means ± standard error of the mean, and analysis was performed using GraphPad Prism 8 software (GraphPad Software, La Jolla, CA). For in vitro assays, nonlinear regression was conducted to determine pIC50 (cAMP) or pEC50 (β-arrestin 2 recruitment). […] The averages of each independent run were counted as a single experiment and combined to provide a composite curve in favor of providing a ‘representative’ curve. In each experimental run, a positive control/reference compound was utilized to allow the data to be normalized and to calculate the log bias value. A minimum of three independent values were obtained for each compound in each of the cellular assays.

HA-mouse µOR = target: T3, HA-mouse µOR (Mus musculus, UniProt P42866); assay: cAMP GloSensor inhibition assay in HEK 293 cells; type: cell-based; conditions: for IC50: HEK 293, forskolin 30 µM; for LogR (µOR) cAMP: operational model Log R (τ/KA); for cAMP µOR Efficacy (%+SD): relative to DAMGO = 100
T3 construct: HA; expressed in transfected cells; host or cells: HEK 293
Experimental: as §1, §2

µOR [2] = target: T1, µOR; assay: cell-based; type: cell-based
Experimental: as §1, §2

Rat plasma stability = conditions: for Degradation Products (First Appearance): rat plasma, UPLC-mass spectrometry, time of first appearance in parentheses; for half-life: rat, plasma
Experimental: Peptides were synthesized using an Aapptec Focus XC automated peptide synthesizer coupled with a heating system using a solid phase peptide synthesis protocol using Fmoc chemistry. Preparative RP-HPLC was performed using an appropriate column and solvent system (described below) and final purity of peptides was determined by UV area % from UPLC analysis. Peptides were purified by Teledyne ISCO EZ Prep system on RediSep® C18 Prep column (30 × 250 mm, 100 Å). […] Plasma stability was also assessed using the above UPLC column and solvent gradient program using a Waters H class Plus Acquity UPLC system coupled with a QDa detector using protocol B.
Sprague Dawley rat plasma containing K2-ethylenediaminetetraacetic acid (Innovative Research, MI, USA) was transferred into 300 µL aliquots and stored at −20 °C until use. […] After adding analog, an aliquot of the mixture was removed at each indicated time point (0, 5, 10, 15, 20, 30, 60, 120, 240 min) and immediately quenched with 100 μL of a methanol solution containing 20 μM Fmoc-Leu-OH as an internal standard. […] Then, the filtrate was transferred into vials and a 5 μL sample of the resulting solution was analyzed on an UPLC system coupled with a QDa detector. […] Determination of half-life (t1/2) was carried out by using the GraphPad Prism one-phase decay method.

µOR [3] = target: T1, µOR; assay: Bias factor calculation (operational model, cAMP vs β-arrestin 2); conditions: DAMGO as reference, >1 = more G protein-biased
Experimental: Bias factors were calculated using the operational model equation in Prism 8 to calculate Log R (τ/KA) (Table S2) as previously described [12]. […] A bias factor > 1 meant that the agonist was more G protein-biased than the reference compound; A bias factor < 1 meant that the agonist was less G protein-biased than the reference compound.

T1 sequence (P35372 whole entry): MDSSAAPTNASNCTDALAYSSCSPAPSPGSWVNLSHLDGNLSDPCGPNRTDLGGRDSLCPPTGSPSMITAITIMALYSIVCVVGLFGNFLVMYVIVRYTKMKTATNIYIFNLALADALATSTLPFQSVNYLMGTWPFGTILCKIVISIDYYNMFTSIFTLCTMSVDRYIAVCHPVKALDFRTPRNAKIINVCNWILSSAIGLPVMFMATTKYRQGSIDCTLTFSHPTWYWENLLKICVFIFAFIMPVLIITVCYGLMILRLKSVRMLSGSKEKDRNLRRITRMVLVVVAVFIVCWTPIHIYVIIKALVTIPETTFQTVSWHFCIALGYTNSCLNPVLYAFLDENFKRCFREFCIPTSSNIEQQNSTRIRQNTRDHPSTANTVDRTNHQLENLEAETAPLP
T3 sequence (P42866 whole entry): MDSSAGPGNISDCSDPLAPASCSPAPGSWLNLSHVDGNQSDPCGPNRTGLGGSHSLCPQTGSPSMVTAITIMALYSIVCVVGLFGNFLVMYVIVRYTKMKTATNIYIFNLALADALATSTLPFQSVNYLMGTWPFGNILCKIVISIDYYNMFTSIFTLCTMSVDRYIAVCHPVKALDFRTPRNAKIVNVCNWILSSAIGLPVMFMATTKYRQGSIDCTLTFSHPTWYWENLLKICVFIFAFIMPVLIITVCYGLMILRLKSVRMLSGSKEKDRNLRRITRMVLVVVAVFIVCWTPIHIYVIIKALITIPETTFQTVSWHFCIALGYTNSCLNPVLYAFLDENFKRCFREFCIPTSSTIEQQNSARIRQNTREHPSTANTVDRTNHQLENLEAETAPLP
T2 sequence (P32300 whole entry): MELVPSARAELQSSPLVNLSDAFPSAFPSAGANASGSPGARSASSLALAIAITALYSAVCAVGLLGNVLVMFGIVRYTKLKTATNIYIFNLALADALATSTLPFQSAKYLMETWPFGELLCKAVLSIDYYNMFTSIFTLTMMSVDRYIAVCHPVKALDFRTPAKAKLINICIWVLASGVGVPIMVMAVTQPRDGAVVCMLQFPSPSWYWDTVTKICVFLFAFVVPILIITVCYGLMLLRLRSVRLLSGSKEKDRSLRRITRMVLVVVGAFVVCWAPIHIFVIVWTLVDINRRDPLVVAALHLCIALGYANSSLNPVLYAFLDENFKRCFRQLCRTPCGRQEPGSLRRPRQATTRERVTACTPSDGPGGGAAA

| SMILES | Ki (µOR [1]) | IC50 (FLAG-mouse δOR; read-out: cAMP IC50 (nM) δOR) | cAMP δOR Efficacy (%+SD) (FLAG-mouse δOR) | IC50 (HA-mouse µOR; read-out: cAMP IC50 (nM) µOR) | LogR (µOR) cAMP (HA-mouse µOR) | cAMP µOR Efficacy (%+SD) (HA-mouse µOR) | EC50 (µOR [2]) | LogR (µOR) β-arr2 (µOR [2]) | β-Arrestin 2 µOR Efficacy (% + SEM) (µOR [2]) | Degradation Products (First Appearance) (Rat plasma stability) | half-life (Rat plasma stability) | Bias Factor µOR (DG = Ref) (µOR [3]) | LogR (δOR) cAMP (FLAG-mouse δOR) | Bias Factor µOR (DG = Ref) (µOR [3]; listed as 1i (NO2)) | cAMP µOR Efficacy (%+SD) (HA-mouse µOR; listed as Leu-enkephalin) | β-Arrestin 2 µOR Efficacy (% + SEM) (µOR [2]; relative to DAMGO = 100%) | IC50 (HA-mouse µOR; read-out: cAMP pIC50 ± SEM (µOR) (converted)) | Bias Factor µOR (DG = Ref) (µOR [3]; listed as 1f (OMe)) | IC50 (FLAG-mouse δOR; read-out: cAMP pIC50 ± SEM (δOR) (converted)) |
| --- | --- | --- | --- | --- | --- | --- | --- | --- | --- | --- | --- | --- | --- | --- | --- | --- | --- | --- | --- |
| CC(C)C[C@H](NC(=O)[C@H](Cc1cccc(I)c1)NC(=O)CNC(=O)CNC(=O)[C@@H](N)Cc1ccc(O)cc1)C(=O)O [Compound 1d] | 0.14 nM | 0.025 nM | 97 ± 4% | 4.27 nM | 8.0 | 94 ± 11% | 46.8 nM | 6.6 | 70 ± 3% | Gly-Gly-(meta-I)Phe-Leu (5 min) (meta-I)Phe-Leu (15 min) | 13.2 min | 3.2 |  |  |  |  |  |  |  |
| Cc1cccc(C[C@H](NC(=O)CNC(=O)CNC(=O)[C@@H](N)Cc2ccc(O)cc2)C(=O)N[C@@H](CC(C)C)C(=O)O)c1 [Compound 1e] | 0.14 nM | 0.039 nM | 92 ± 8% | 3.72 nM | 8.1 | 85 ± 10% | 186 nM | 6.1 | 71 ± 3% | Gly-Gly-(meta-Me)Phe-Leu (5 min) (meta-Me)Phe-Leu (20 min) | 39.5 min | 11.5 | 10 |  |  |  |  |  |  |
| CC(C)C[C@H](NC(=O)[C@H](Cc1cccc([N+](=O)[O-])c1)NC(=O)CNC(=O)CNC(=O)[C@@H](N)Cc1ccc(O)cc1)C(=O)O [Compound 1i] | 0.98 nM | 0.47 nM | 99 ± 6% | 49 nM | 7.2 |  | 537 nM | 5.3 | 60 ± 6% | Gly-Gly-(meta-NO2)Phe-Leu (5 min) (meta- NO2)Phe-Leu (20 min) | 28.8 min |  | 9.0 | 11.1 |  |  |  |  |  |
| CC(C)C[C@H](NC(=O)[C@H](Cc1cccc(C#N)c1)NC(=O)CNC(=O)CNC(=O)[C@@H](N)Cc1ccc(O)cc1)C(=O)O [Compound 1h] | 0.3 nM | 0.35 nM | 100 ± 3% | 12 nM | 7.5 | 92 ± 13% | 158 nM | 5.9 | 68 ± 4% | Gly-Gly-(meta-CN)Phe-Leu (5 min) (meta-CN)Phe-Leu (20 min) | 33 min | 5.4 | 9.3 |  |  |  |  |  |  |
| CC(C)C[C@H](NC(=O)[C@H](Cc1cccc(C(F)(F)F)c1)NC(=O)CNC(=O)CNC(=O)[C@@H](N)Cc1ccc(O)cc1)C(=O)O [Compound 1g] |  | 0.11 nM | 92 ± 8% | 2.45 nM | 8.1 | 90 ± 4% | 56.2 nM | 6.6 | 71 ± 3% | Gly-Gly-(meta-CF3)Phe-Leu (5 min) (meta- CF3)Phe-Leu (30 min) | 44.5 min | 4.3 | 9.7 |  |  |  |  |  |  |
| CC(C)C[C@H](NC(=O)[C@H](Cc1ccccc1)NC(=O)CNC(=O)CNC(=O)[C@@H](N)Cc1ccc(O)cc1)C(=O)O [Leu^5-enkephalin, Tyr^1-Gly^2-Gly^3-Phe^4-Leu^5, reference compound] |  |  | 100% |  |  | 100% |  |  |  | Gly-Gly-Phe-Leu (5 min) Phe-Leu (10 min) |  |  |  |  | 100 ± 9% |  |  |  |  |
| C[C@@H](NC(=O)[C@@H](N)Cc1ccc(O)cc1)C(=O)NCC(=O)N(C)[C@@H](Cc1ccccc1)C(=O)NCCO [DAMGO, (D-Ala^2, N-MePhe^4, Gly-ol) enkephalin, reference compound] |  |  |  |  | 7.8 | 100% |  |  |  |  |  | 1 |  |  |  | 100% |  |  |  |
| CC(C)C[C@H](NC(=O)[C@H](Cc1cccc(Br)c1)NC(=O)CNC(=O)CNC(=O)[C@@H](N)Cc1ccc(O)cc1)C(=O)O [Compound 1c, H2N-Tyr-Gly-Gly-(meta-Br)Phe-Leu-OH] | 0.13 nM | 0.03 nM | 96 ± 4% |  | 8.1 | 104 ± 11% | 35.5 nM | 7.2 | 79 ± 6% | Gly-Gly-(meta-Br)Phe-Leu (5 min) (meta-Br)Phe-Leu (15 min) | 21.5 min | 1.2 | 10.5 |  |  |  | 10 nM |  |  |
| COc1cccc(C[C@H](NC(=O)CNC(=O)CNC(=O)[C@@H](N)Cc2ccc(O)cc2)C(=O)N[C@@H](CC(C)C)C(=O)O)c1 [Compound 1f] |  | 0.14 nM | 98 ± 10% | 8.12 nM | 7.4 | 87 ± 5% | 589 nM | 5.6 | 67 ± 3% | Gly-Gly-(meta-OMe)Phe-Leu (5 min) (meta-OMe)Phe-Leu (20 min) | 46.1 min |  | 9.8 |  |  |  |  | 8.4 |  |
| CC(C)C[C@H](NC(=O)[C@H](Cc1cccc(F)c1)NC(=O)CNC(=O)CNC(=O)[C@@H](N)Cc1ccc(O)cc1)C(=O)O [Compound 1a, H2N-Tyr-Gly-Gly-(meta-F)Phe-Leu-OH] |  | 0.39 nM | 95 ± 6% |  | 8.0 | 98 ± 6% | 575 nM | 5.8 | 75 ± 13% | Gly-Gly-(meta-F)Phe-Leu (5 min) (meta-F)Phe-Leu (60 min) | 82.3 min | 22.2 | 9.4 |  |  |  |  |  | 0.339 nM |
| CC(C)C[C@H](NC(=O)[C@H](Cc1cccc(Cl)c1)NC(=O)CNC(=O)CNC(=O)[C@@H](N)Cc1ccc(O)cc1)C(=O)O [Compound 1b, H2N-Tyr-Gly-Gly-(meta-Cl)Phe-Leu-OH] |  | 0.022 nM | 94 ± 5% | 30.2 nM | 7.5 | 99 ± 7% | 67.6 nM | 7.2 | 96 ± 8% | Gly-Gly-(meta-Cl)Phe-Leu (5 min) (meta-Cl)Phe-Leu (30 min) | 37.8 min | 0.3 | 10.6 |  |  |  |  |  |  |
